Experimental data: US12157730B2, “Heteroaryl derivative, method for producing same, and pharmaceutical composition comprising same as effective component” (VORONOI INC., priority 2019, dated 2024)

Molecular target: T1, Ba/F3 cell EGFR Exon20 ins NPH (Homo sapiens, UniProt P00533, INS773NPH)
T1 construct: expressed in transfected cells; host or cells: Ba/F3
Assay: Ba/F3 cell proliferation suppression, EGFR Exon20 ins NPH
Type: cell-based
Details: GI50 class; Ba/F3 cell line with NPH inserted at Exon20 of EGFR; 72 hours
Procedure, shortened: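 Growth suppression determined as GI50 following 72 h exposure across 12 concentrations up to 50 um, with viability by luminescent ATP assay (CellTiter-Glo).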

| Structure (SMILES) | Ba/F3 (NPH) Activity |
| --- | --- |
| C=CC(=O)Nc1cc(Nc2cc(N3OCC[C@@H]3c3ccccc3)ncn2)c(OC)cc1N1CCC(N2C[C@H]3C[C@@H]2CN3CC)CC1 [compound 738, N-(2-(4-((1R,4R)-5-ethyl-2,5-diazabicyclo [2.2.1]heptane-2-yl)piperidine-1-yl)-4-methoxy-5-((6-((R)-3-phenylisoxazolidine-2-yl)pyrimidine-4-yl)amino)phenyl) acrylamide] | A (GI50 < 50 nM) |
| C=CC(=O)Nc1cc(Nc2cc(N3OCC[C@@H]3c3ccc4ccccc4c3)ncn2)c(OC)cc1N1CCC(N2CCN(C3CC3)CC2)CC1 [Example 151, N-(2-(4-(4-cyclopropylpiperazine-1-yl)piperidine-1-yl)-4-methoxy-5-((6-((R)-3-(naphthalene-2-yl)isoxazolidine-2-yl)pyrimidine-4-yl)amino)phenyl)acrylamide] | B (50 nM ≤ GI50 < 500 nM) |
| C=CC(=O)Nc1cc(Nc2cc(N3OCC[C@@H]3c3ccc(F)cc3)ncn2)c(OC)cc1N1CCC(N2C[C@H]3C[C@@H]2CO3)CC1 [compound 813, N-(2-(4-((1R,4R)-2-oxa-5-azabicyclo [2.2.1]heptane-5-yl)piperidine-1-yl)-5-((6-((R)-3-(4-fluorophenyl)isoxazolidine-2-yl)pyrimidine-4-yl)amino)-4-methoxyphenyl) acrylamide] | A (GI50 < 50 nM) |
| C=CC(=O)Nc1cc(Nc2cc(N3OCC[C@@H]3Cc3ccccc3)ncn2)c(OC)cc1N1CCC(N(C)C)CC1 [compound 951, N-(5-((6-((S)-3-benzylisoxazolidine-2-yl)pyrimidine-4-yl)amino)-2-(4-(dimethylamino)piperidine-1-yl)-4-methoxyphenyl) acrylamide] | A (GI50 < 50 nM) |
| C=CC(=O)Nc1cc(Nc2cc(N3OCC[C@@H]3c3ccc(F)c(Cl)c3)ncn2)c(OC)cc1N1CCN(C2CC2)CC1 [compound 725, N-(5-((6-((R)-3-(3-chloro-4-fluorophenyl)isoxazolidine-2-yl)pyrimidine-4-yl)amino)-2-(4-cyclopropylpiperazine-1-yl)-4-methoxyphenyl) acrylamide] | A (GI50 < 50 nM) |
| C=CC(=O)Nc1cc(Nc2cc(N3OCC[C@@H]3Cc3ccccc3)ncn2)c(OC)cc1N1CCN(C(C)C)CC1 [compound 954, N-(5-((6-((S)-3-benzylisoxazolidine-2-yl)pyrimidine-4-yl)amino)-2-(4-isopropylpiperazine-1-yl)-4-methoxyphenyl) acrylamide] | A (GI50 < 50 nM) |
| C=CC(=O)Nc1cc(Nc2cc(N3OCC[C@@H]3Cc3cccc(Cl)c3F)ncn2)c(OC)cc1N1CCN(C2CC2)CC1 [compound 1017, N-(5-((6-((S)-3-(3-chloro-2-fluorobenzyl)isoxazolidine-2-yl)pyrimidine-4-yl)amino)-2-(4-cyclopropylpiperazine-1-yl)-4-methoxyphenyl) acrylamide] | A (GI50 < 50 nM) |
| C=CC(=O)Nc1cc(Nc2cc(N3OCC[C@@H]3c3cccc(Cl)c3C)ncn2)c(OC)cc1N1CCC(N2CCN(C3CC3)CC2)CC1 [Example 145, N-(5-((6-((R)-3-(3-chloro-2-methylphenyl)isoxazolidine-2-yl)pyrimidine-4-yl)amino)-2-(4-(4-cyclopropylpiperazine-1-yl)piperidine-1-yl)-4-methoxyphenyl) acrylamide] | A (GI50 < 50 nM) |
| C=CC(=O)Nc1cc(Nc2cc(N3OCC[C@@H]3c3cc(F)cc(F)c3)ncn2)c(OC)cc1N1CCC(N2CCN(C3CCCC3)CC2)CC1 [Example 98, N-(2-(4-(4-cyclopentylpiperazine-1-yl)piperidine-1-yl)-5-((6-((R)-3-(3,5-difluorophenyl)isoxazolidine-2-yl)pyrimidine-4-yl)amino)-4-methoxyphenyl) acrylamide] | A (GI50 < 50 nM) |
| C=CC(=O)Nc1cc(Nc2cc(N3OCC[C@@H]3Cc3ccccc3)ncn2)c(OC)cc1N1C[C@@H]2C[C@H]1CN2CC [compound 950, N-(5-((6-((S)-3-benzylisoxazolidine-2-yl)pyrimidine-4-yl)amino)-2-((1S,4S)-5-ethyl-2,5-diazabicyclo [2.2.1]heptane-2-yl)-4-methoxyphenyl) acrylamide] | A (GI50 < 50 nM) |
| C=CC(=O)Nc1cc(Nc2cc(N3OCC[C@@H]3Cc3cccc(F)c3)ncn2)c(OC)cc1N1CCN(C)CC1 [compound 991, N-(5-((6-((S)-3-(3-fluorobenzyl)isoxazolidine-2-yl)pyrimidine-4-yl)amino)-4-methoxy-2-(4-methylpiperazine-1-yl)phenyl)acrylamide] | A (GI50 < 50 nM) |
| C=CC(=O)Nc1cc(Nc2cc(N3OCC[C@@H]3c3ccc4ccccc4c3)ncn2)c(OC)cc1N1CC[C@@H](N(C)C)C1 [compound 513, N-(2-((R)-3-(dimethylamino)pyrolidine-1-yl)-4-methoxy-5-((6-((R)-3-(naphthalene-2-yl)isoxazolidine-2-yl)pyrimidine-4-yl)amino)phenyl)acrylamide] | B (50 nM ≤ GI50 < 500 nM) |
| C=CC(=O)Nc1cc(Nc2cc(N3OCC[C@@H]3c3ccc4ccccc4c3)ncn2)c(OC)cc1N1CCC(N2CCN(CC)CC2)CC1 [compound 515, N-(2-(4-(4-ethylpiperazine-1-yl)piperidine-1-yl)-4-methoxy-5-((6-((R)-3-(naphthalene-2-yl)isoxazolidine-2-yl)pyrimidine-4-yl)amino)phenyl)acrylamide] | B (50 nM ≤ GI50 < 500 nM) |
| C=CC(=O)Nc1cc(Nc2cc(N3OCC[C@H]3c3c(F)cccc3F)ncn2)c(OC)cc1N1C[C@H]2CCN(C)[C@H]2C1 [compound 898, N-(5-((6-((S)-3-(2,6-difluorophenyl)isoxazolidine-2-yl)pyrimidine-4-yl)amino)-4-methoxy-2-((3aR,6aR)-1-methylhexahydropyrrolo [3,4-b]pyrrole-5(1H)-yl)phenyl) acrylamide] | C (500 nM ≤ GI50 < 5000 nM) |
| C=CC(=O)Nc1cc(Nc2cc(N3OCC[C@@H]3Cc3cccc(F)c3)ncn2)c(OC)cc1N1CCC(N2CCN(C3CC3)CC2)CC1 [compound 997, N-(2-(4-(4-cyclopropylpiperazine-1-yl)piperidine-1-yl)-5-((6-((S)-3-(3-fluorobenzyl)isoxazolidine-2-yl)pyrimidine-4-yl)amino)-4-methoxyphenyl) acrylamide] | A (GI50 < 50 nM) |
| C=CC(=O)Nc1cc(Nc2cc(N3OCC[C@@H]3c3ccc(F)c(Cl)c3)ncn2)c(OC)cc1N1CCC(N2CC[C@@H](N(C)C)C2)CC1 [compound 769, N-(5-((6-((R)-3-(3-chloro-4-fluorophenyl)isoxazolidine-2-yl)pyrimidine-4-yl)amino)-2-(4-((R)-3-(dimethylamino)pyrolidine-1-yl)piperidine-1-yl)-4-methoxyphenyl) acrylamide] | A (GI50 < 50 nM) |
| C=CC(=O)Nc1cc(Nc2cc(N3OCC[C@@H]3c3cccc(C(F)(F)F)c3)ncn2)c(OC)cc1N(C)CCN(C)C [compound 449, N-(2-((2-(dimethylamino)ethyl)(methyl)amino)-4-methoxy-5-((6-((R)-3-(3-(trifluoromethyl)phenyl)isoxazolidine-2-yl)pyrimidine-4-yl)amino)phenyl)acrylamide] | A (GI50 < 50 nM) |
| C=CC(=O)Nc1cc(Nc2cc(N3OCC[C@@H]3c3cccc(Cl)c3F)ncn2)c(OC)cc1N1CCN(C2COC2)CC1 [compound 745, N-(5-((6-((R)-3-(3-chloro-2-fluorophenyl)isoxazolidine-2-yl)pyrimidine-4-yl)amino)-4-methoxy-2-(4-(oxetane-3-yl)piperazine-1-yl)phenyl) acrylamide] | A (GI50 < 50 nM) |
| C=CC(=O)Nc1cc(Nc2cc(N3OCC[C@@H]3c3ccc4ccccc4c3)ncn2)c(OC)cc1N1CCO[C@@H](C)C1 [compound 659, N-(4-methoxy-2-((S)-2-methylmorpholino)-5-((6-((R)-3-(naphthalene-2-yl)isoxazolidine-2-yl)pyrimidine-4-yl)amino)phenyl)acrylamide] | B (50 nM ≤ GI50 < 500 nM) |
| C=CC(=O)Nc1cc(Nc2cc(N3OCC[C@@H]3c3ccc(Cl)cc3F)ncn2)c(OC)cc1N(C)CCN(C)C [compound 371, N-(5-((6-((R)-3-(4-chloro-2-fluorophenyl)isoxazolidine-2-yl)pyrimidine-4-yl)amino)-2-((2-(dimethylamino)ethyl)(methyl)amino)-4-methoxyphenyl) acrylamide] | A (GI50 < 50 nM) |
| C=CC(=O)Nc1cc(Nc2cc(N3OCC[C@@H]3c3cccc4ccccc34)ncn2)c(OC)cc1N1CCN(C)CC1 [compound 441, N-(4-methoxy-2-(4-methylpiperazine-1-yl)-5-((6-((R)-3-(naphthalene-1-yl)isoxazolidine-2-yl)pyrimidine-4-yl)amino)phenyl) acrylamide] | B (50 nM ≤ GI50 < 500 nM) |
| C=CC(=O)Nc1cc(Nc2cc(N3OCC[C@@H]3c3cc(F)cc(F)c3)ncn2)c(OC)cc1N1CCC(N2CCN(C)[C@@H](C)C2)CC1 [compound 760, N-(5-((6-((R)-3-(3,5-difluorophenyl)isoxazolidine-2yl)pyrimidine-4-yl)amino)-2-(4-((S)-3,4-dimethylpiperazine-1-yl)piperidine-1-yl)-4-methoxyphenyl) acrylamide] | A (GI50 < 50 nM) |
| C=CC(=O)Nc1cc(Nc2cc(N3OCC[C@@H]3c3ccc(C)nc3)ncn2)c(OC)cc1N1CC[C@@H](N(C)C)C1 [Example 221, N-(2-((R)-3-(dimethylamino)pyrolidine-1-yl)-4-methoxy-5-((6-((R)-3-(6-methylpyridine-3-yl)isoxazolidine-2-yl)pyrimidine-4-yl)amino)phenyl) acrylamide] | B (50 nM ≤ GI50 < 500 nM) |
